system: efflux pump; assay: efflux pump substrate activity; type: in vitro ADME
Excerpt: For the treatment of certain diseases, it may be beneficial to have a therapeutic agent that is not an efflux pump substrate. […] In one embodiment of the invention R^2 is (C1-C15)alkyl or (C2-C15) alkenyl. In one embodiment of the invention R^4 is (C1-C15)alkyl or (C2-C15)alkenyl. In one embodiment of the invention R^4 is (C1-C6)alkyl.

| SMILES | efflux pump substrate |
| --- | --- |
| COc1cc(/C=C/c2cc(O)c3c(CC=C(C)C)c[nH]c3c2)cc2c1O[C@]1(C)CC[C@@H](O)C(C)(C)[C@H]1C2 [Compound 10] | diminished activity as efflux pump substrates compared to Compound 4 |
| COc1cc(/C=C/c2cc(OC)c3cc[nH]c3c2)cc2c1O[C@]1(C)CC[C@@H](O)C(C)(C)[C@H]1C2 [Compound 4, reference compound] | found to be an efflux pump substrate |
| COc1cc(/C=C/c2cc(O)c3ccn(C)c3c2)cc2c1O[C@]1(C)CC[C@@H](O)C(C)(C)[C@H]1C2 [Compound 7] | diminished activity as efflux pump substrates compared to Compound 4 |
| COc1cc(/C=C/c2cc(O)c3c(c2)C[C@@H]2C(C)(C)[C@H](O)CC[C@@]2(C)O3)cc2c1ccn2C [Compound 9] | diminished activity as efflux pump substrates compared to Compound 4 |

Source: US9428493B2, “Schweinfurthin analogues” (University of Iowa Research Foundation, priority 2012, dated 2016)
